# Legend:
# small intestine organoid = assay: Mouse small intestine organoid culture; assay type: cell-based; settings: day 9 of culture, 10 μM
# Procedure: 7-Week-old male C57BL/6N mice were purchased from CHARLES RIVER LABORATORIES JAPAN, INC. After the acclimation period, the small intestine and colon were isolated under anesthesia. Crypts were collected from the excised small intestine and colon according to the protocol of IntestiCult (trade mark) Organoid Growth Medium. To be specific, the inside of the intestine was washed with 1 mL of cold PBS, then incised vertically, and washed 3 times with 1 mL of cold PBS. The intestine was transferred to a 10 cm petri dish filled with cold PBS, washed thoroughly again, and transferred to a 50 mL tube containing 15 mL of cold PBS while cutting into 2 mm pieces. […] The number of crypts contained in 10 μL of the suspension was counted under a microscope to determine the concentration, and the mixture was dispensed into a 15 mL tube at 800 crypts/tube, and centrifuged at 4° C., 200 g×5 min. […] Organoids were image-analyzed over time by Cell3iMager duos (SCREEN Holdings Co., Ltd.). For image analysis, the number of crypts having a diameter of 30-200 μm was counted as the number of seeded crypts on the first day of culture, and then those grown to 70 μm or more over time were counted as organoids, and the organoid formation rate from the crypts was calculated. At that time, the average diameter of the organoids measured at the same time was calculated. […]
# [1] = tested on: mouse partial liver resection model; assay: Liver weight increase in mouse partial liver resection model; assay type: in vivo; settings: BALB/c mice; intraperitoneal, 4 times every 24 hr; about 30% of the liver removed; FIG. 2
# Procedure: A partial liver resection model in which the mouse liver was partially resected was prepared as described below, and the liver weight increasing effect of the compound of the present invention was evaluated by comparing the liver weight immediately after the resection with the liver weight 3 days after the resection.
# A 0.5 w/v % methylcellulose aqueous solution (0.5% MC, manufactured by FUJIFILM Wako Pure Chemical Corporation) and A-007 were evaluated. A-007 was suspended in 0.5% MC, and prepared at a final concentration of 1 mg/mL.
# Mice, BALB/cAnNCrlCrlj, 5-week-old, male, were purchased from CHARLES RIVER LABORATORIES JAPAN. In terms of the 0.5% MC administration-control group, 0.5% MC 10 mL/kg was administered intraperitoneally once, and 24 hr later, the entire liver was isolated and the liver weight was measured (n=3). As used herein, the control group means a group without removal of the liver. […]
# Immediately after the second administration, the abdomen was opened under isoflurane (manufactured by Intervet Co., Ltd.) anesthesia, and the root of liver lobe was ligated with a suture thread, and about 30% of the liver was finally removed by excising the tip of the ligated liver lobe. After that, the abdomen was closed, and 24 hr after the final administration, the entire liver was removed and the liver weight was measured (n=3). […]
structure (smiles),measurement,setting,value
CC/C(=N\NC(=O)C(C)Nc1cncc(F)c1)c1ccc(O)c(C)c1O (stereo not drawn) [A-007],formation rate (%),small intestine organoid; DMSO 39,70%
same,average diameter (μm),small intestine organoid; DMSO 202,257 μm
same,changes in the liver weight ratio,[1],has an action of promoting a liver weight increase
